Source: PubChem BioAssay AID330 (DTP/NCI, 2004)
Values joined by “and” are separate entries in the source; they are usually repeats but may differ in a detail not shown here. Equal values may be shown once. Inconclusive results and toxic doses are left out. How the source made its calls: active means survival T/C of 150% or more; inactive means T/C below 125% in these data.

System: P388 leukemia ip, CD2F1 mice, survival T/C
Experiment: NCI In Vivo Anticancer Drug Screen. Data for tumor model P388 Leukemia (intraperitoneal) in CD2F1 (CDF1) mice
Conditions: endpoint: median survival time, higher = longer survival
Summary of the method: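 Mice carrying the transplanted tumor received test compound or vehicle. Survival was recorded in each group, and the value is the treated-group measurement divided by that of the vehicle-treated control group.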

[1] = dose: 50.0 mg/kg/injection, schedule: Q01DX005 (ip), vehicle: saline
[2] = dose: 200.0 mg/kg/injection, schedule: Q04DX002 (ip), vehicle: Klucel (hydroxypropylcellulose) (HPC)
[3] = dose: 400.0 mg/kg/injection, schedule: Q04DX002 (ip), vehicle: Klucel (hydroxypropylcellulose) (HPC)
[4] = dose: 100.0 mg/kg/injection, schedule: Q01DX005 (ip), vehicle: Klucel (hydroxypropylcellulose) (HPC)
[5] = dose: 6.25 mg/kg/injection, schedule: Q01DX009 (ip), vehicle: saline
[6] = dose: 12.5 mg/kg/injection, schedule: Q01DX009 (ip), vehicle: saline
[7] = dose: 25.0 mg/kg/injection, schedule: Q01DX009 (ip), vehicle: saline
[8] = dose: 50.0 mg/kg/injection, schedule: Q01DX009 (ip), vehicle: saline
[9] = dose: 50.0 mg/kg/injection, schedule: Q01DX009 (ip), vehicle: saline with Tween-80
[10] = dose: 100.0 mg/kg/injection, schedule: Q01DX009 (ip), vehicle: saline with Tween-80
[11] = dose: 200.0 mg/kg/injection, schedule: Q01DX009 (ip), vehicle: saline with Tween-80
[12] = dose: 60.0 mg/kg/injection, schedule: Q01DX005 (ip), vehicle: saline with Tween-80
[13] = dose: 120.0 mg/kg/injection, schedule: Q01DX005 (ip), vehicle: saline with Tween-80
[14] = dose: 240.0 mg/kg/injection, schedule: Q01DX005 (ip), vehicle: saline with Tween-80
[15] = dose: 100.0 mg/kg/injection, schedule: Q01DX009 (ip), vehicle: saline
[16] = dose: 12.5 mg/kg/injection, schedule: Q01DX005 (ip), vehicle: saline with Tween-80
[17] = dose: 25.0 mg/kg/injection, schedule: Q01DX005 (ip), vehicle: saline with Tween-80
[18] = dose: 50.0 mg/kg/injection, schedule: Q01DX005 (ip), vehicle: saline with Tween-80
[19] = dose: 100.0 mg/kg/injection, schedule: Q01DX005 (ip), vehicle: saline with Tween-80

Measured: T/C

COC(=O)[C@@H]1O[C@H]2OC=C[C@H]21
inactive: dose: 12.5 mg/kg/injection, schedule: Q01DX005 (ip), vehicle: saline 112 % of control | dose: 25.0 mg/kg/injection, schedule: Q01DX005 (ip), vehicle: saline 108 % of control | [1] 99 % of control and 100 % of control

Cc1ccc(NC(=S)N/N=C\c2nc3ccccc3c3ccccc23)cc1
inactive: dose: 100.0 mg/kg/injection, schedule: Q04DX002 (ip), vehicle: Klucel (hydroxypropylcellulose) (HPC) 98 % of control | [2] 92 % of control | [3] 93 % of control

S=C1NCCNC(=S)SS1
inactive: [4] 108 % of control

CC1(C)CC2(CC3(C1)S(=O)(=O)CCS3(=O)=O)S(=O)(=O)CCS2(=O)=O
inactive: [5] 103 % of control | [6] 100 % of control | [7] 116 % of control | [8] 100 % of control

Cc1ccn2c(C(C)O)nnc2c1 (centres undefined)
inactive: [9] 93 % of control | [10] 90 % of control | [11] 100 % of control

CC1=CC=CN2CCC(=O)N=C12
inactive: [1] 113 % of control | dose: 100.0 mg/kg/injection, schedule: Q01DX005 (ip), vehicle: saline 101 % of control | dose: 200.0 mg/kg/injection, schedule: Q01DX005 (ip), vehicle: saline 101 % of control

Clc1n[nH]c(Cl)n1
inactive: [10] 95 % of control

Nc1nnc2nc(CC(=O)/C=C/c3ccccc3)/c(=C/C(=O)/C=C/c3ccccc3)n12
inactive: dose: 100.0 mg/kg/injection, schedule: Q04DX002 (ip), vehicle: saline with Tween-80 104 % of control | dose: 200.0 mg/kg/injection, schedule: Q04DX002 (ip), vehicle: saline with Tween-80 107 % of control | dose: 400.0 mg/kg/injection, schedule: Q04DX002 (ip), vehicle: saline with Tween-80 100 % of control

CC1CCCCC1C(C)(C#N)Nc1ccccc1 (centres undefined)
inactive: [10] 109 % of control | [11] 113 % of control | dose: 400.0 mg/kg/injection, schedule: Q01DX009 (ip), vehicle: saline with Tween-80 118 % of control

CC(=O)CCC(=O)CC(=O)CCC(=O)Nc1cc(Cl)ccc1Cl
inactive: [12] 107 % of control | [13] 106 % of control | [14] 101 % of control

CC(=O)Oc1ccc2c3c1O[C@H]1[C@@H](OC(C)=O)C=C[C@H]4[C@@H](C2)N(C)CC[C@@]341
inactive: dose: 0.39 mg/kg/injection, schedule: Q01DX009 (ip), vehicle: saline 100 % of control | dose: 0.78 mg/kg/injection, schedule: Q01DX009 (ip), vehicle: saline 101 % of control | dose: 1.56 mg/kg/injection, schedule: Q01DX009 (ip), vehicle: saline 94 % of control | dose: 3.12 mg/kg/injection, schedule: Q01DX009 (ip), vehicle: saline 95 % of control | [5] 100 % of control | [6] 110 % of control | [7] 100 % of control | [8] 108 % of control | [15] 117 % of control | dose: 200.0 mg/kg/injection, schedule: Q01DX009 (ip), vehicle: saline 110 % of control

OC1CC2CCC(N2)C1c1ccccc1 (centres undefined)
inactive: [16] 94 % of control | [17] 86 % of control | [18] 101 % of control and 93 % of control

O=C1C(Br)=C(O)C(c2ccccc2)N1c1ccccc1 (centres undefined)
inactive: [12] 110 % of control | [13] 94 % of control | [14] 113 % of control

COc1ccc(S(=O)(=O)F)cc1NC(C)=O
inactive: dose: 60.0 mg/kg/injection, schedule: Q01DX005 (ip), vehicle: Klucel (hydroxypropylcellulose) (HPC) 105 % of control | dose: 120.0 mg/kg/injection, schedule: Q01DX005 (ip), vehicle: Klucel (hydroxypropylcellulose) (HPC) 101 % of control

Oc1ccccc1/C=N\Nc1ccccc1
inactive: dose: 100.0 mg/kg/injection, schedule: Q01DX001 (ip), vehicle: other 113 % of control | dose: 200.0 mg/kg/injection, schedule: Q01DX001 (ip), vehicle: other 118 % of control | dose: 400.0 mg/kg/injection, schedule: Q01DX001 (ip), vehicle: other 100 % of control

CCCCP(=O)(CCCC)CCCC.CCCCP(=O)(CCCC)CCCC.CCCCP(=O)(CCCC)CCCC.CCCCP(=O)(CCCC)CCCC.[Fe+3].[O-][Cl+3]([O-])([O-])O
inactive: dose: 50.0 mg/kg/injection, schedule: Q01DX009 (ip), vehicle: saline + Tween-80 + alcohol 112 % of control | dose: 100.0 mg/kg/injection, schedule: Q01DX009 (ip), vehicle: saline + Tween-80 + alcohol 93 % of control | dose: 200.0 mg/kg/injection, schedule: Q01DX009 (ip), vehicle: saline + Tween-80 + alcohol 89 % of control

NC(CSCCc1ccncc1)C(=O)O (centres undefined)
inactive: [5] 103 % of control | [6] 105 % of control | [7] 96 % of control

CC(C)CC(=O)CC(C)(O)CCC(=O)c1ccoc1 (centres undefined)
inactive: [17] 98 % of control | [18] 104 % of control | [19] 102 % of control

COC(=O)C1=C(OC)C(C(=O)c2ccccc2)NC1=O (centres undefined)
inactive: [12] 111 % of control | [13] 100 % of control | [14] 99 % of control

CCCCCCC(=O)/C=C/c1ccc(O)cc1
inactive: [9] 105 % of control | [10] 105 % of control | [11] 105 % of control

N#CCN(CC#N)CC#N
inactive: dose: 1.56 mg/kg/injection, schedule: Q01DX009 (ip), vehicle: saline with Tween-80 104 % of control | dose: 1.56 mg/kg/injection, schedule: Q04DX003 (ip), vehicle: saline with Tween-80 95 % of control | dose: 3.13 mg/kg/injection, schedule: Q01DX009 (ip), vehicle: saline with Tween-80 90 % of control | dose: 3.13 mg/kg/injection, schedule: Q04DX003 (ip), vehicle: saline with Tween-80 90 % of control | dose: 6.25 mg/kg/injection, schedule: Q01DX009 (ip), vehicle: saline with Tween-80 109 % of control | dose: 6.25 mg/kg/injection, schedule: Q04DX003 (ip), vehicle: saline with Tween-80 90 % of control

CS(=O)(=O)C(CCC(=O)c1ccc([N+](=O)[O-])cc1)C(=O)c1ccccc1 (centres undefined)
inactive: dose: 50.0 mg/kg/injection, schedule: Q01DX005 (ip), vehicle: Klucel (hydroxypropylcellulose) (HPC) 98 % of control | [4] 96 % of control | dose: 200.0 mg/kg/injection, schedule: Q01DX005 (ip), vehicle: Klucel (hydroxypropylcellulose) (HPC) 104 % of control

NC1=NC2(CS1)CSC(N)=N2
inactive: [9] 94 % of control | [10] 113 % of control | [11] 90 % of control

C1CC[C@H]2OCN[C@@H]2C1
inactive: [2] 118 % of control | [3] 115 % of control

CCCCOCC(=O)O
inactive: [7] 94 % of control | [8] 97 % of control | [15] 93 % of control

C=CCOc1ccccc1C(=O)NC(O)(C(F)(F)F)C(F)(F)F
inactive: dose: 50.0 mg/kg/injection, schedule: Q04DX002 (ip), vehicle: suspension in saline 100 % of control | dose: 100.0 mg/kg/injection, schedule: Q04DX002 (ip), vehicle: suspension in saline 104 % of control | dose: 200.0 mg/kg/injection, schedule: Q04DX002 (ip), vehicle: suspension in saline 98 % of control

CC(=O)OC1C(=C(Br)Br)C(COC(=O)c2ccccc2)OC1n1cnc2c(NC(=O)c3ccccc3)ncnc21 (centres undefined)
inactive: dose: 100.0 mg/kg/injection, schedule: Q01DX001 (ip), vehicle: saline with Tween-80 98 % of control | dose: 200.0 mg/kg/injection, schedule: Q01DX001 (ip), vehicle: saline with Tween-80 90 % of control | dose: 400.0 mg/kg/injection, schedule: Q01DX001 (ip), vehicle: saline with Tween-80 92 % of control

FC(F)(F)c1ccc2c(N/N=C/c3ccc(N(CCCl)CCCl)cc3)ccnc2c1
inactive: dose: 100.0 mg/kg/injection, schedule: Q04DX003 (ip), vehicle: Klucel (hydroxypropylcellulose) (HPC) 111 % of control | dose: 200.0 mg/kg/injection, schedule: Q04DX003 (ip), vehicle: Klucel (hydroxypropylcellulose) (HPC) 99 % of control | dose: 400.0 mg/kg/injection, schedule: Q04DX003 (ip), vehicle: Klucel (hydroxypropylcellulose) (HPC) 90 % of control

COc1ccc2nc(N/N=C/c3cccc(C)n3)cc(C)c2c1
inactive: [16] 100 % of control | [17] 96 % of control | [18] 94 % of control and 95 % of control | [19] 114 % of control | dose: 200.0 mg/kg/injection, schedule: Q01DX005 (ip), vehicle: saline with Tween-80 116 % of control
